Data taken from patent US20010041669A1, “Prevention of diabetes” (priority 1995, published 2001).

Experiments:
[1] = tested on: receptor (receptor binding assay) or mouse free fat cell (lipogenesis); test: Biological activity relative to human insulin, receptor binding or lipogenesis assays; details: for Activity relative to human insulin (= 1.00): either receptor binding or lipogenesis assays
Text: Metab. Res. 6, 12-16 and Vølund (1978) Biometrics 34, 357-365 or in the receptor binding assay as described by Andersen et al. (1992) J. Biol. Chem. 267, 13681-13686.
Methods of analysing the biological activity (hypoglycaemic effect) of insulins are well know, and include receptor binding assays using whole cells or soluble receptors, the mouse free fat cell assay, euglycaemic pig clamp assay, intravenous rabbit blood glucose assay and the subcutaneous mouse blood glucose assay (Vølund et al. (1991) Diabetic Medicine, 8, 839-847, Brange et al. (1990) Diabetes Care 13, 923-954, Drejer (1992) Diabetes/Metabolism Reviews 8, 259-286)

NOD mice [2] = test: Daily subcutaneous administration in the initial stage of diabetes in NOD mice (Example 3); format: in vivo; details: for frequency of diabetes compared to buffer treated animals: s.c. daily 0.77 mg/kg from 10 to 37 weeks of age, effect from 15 weeks until end, female NOD mice; for cases of diabetes after termination of the treatment: treatment stopped at 37 weeks, observed until 39 weeks
Method: Female NOD (non-obese diabetic) mice, 4-5 weeks old, were obtained from the Jackson Laboratory (Bar Harbour, Me.). At the beginning of the experiment, there were a total of 20 animals in each of the three groups mentioned below. […] The treatment was continued until the mice were 37 weeks old, at which age treatment was stopped. The mice were observed until they were 39 weeks old. Beginning when the mice were 10 weeks old, the urine was tested weekly for the presence of glucose using glucosuria test tape (Tes-Tape, Lilly, Indianapolis, Ind.). If an animal tested positive in the glucose urine test, a blood sample was taken and blood glucose measured using a glucose analyzer. If the blood glucose was 15 mmol/l or higher, the animal was classified as diabetic and sacrificed.

NOD mice [3] = test: Effect on blood glucose level of daily subcutaneous injection in NOD mice (Example 1); format: in vivo, mouse; details: for effect on blood glucose level: day 7, 6 hours after injection, female NOD mice
Method: Furthermore, 4 of the 5 animals receiving insulin (3.8 mg/kg) died of hypoglycaemia after 3-5 days of treatment and animal number five had to be sacrificed on day seven due to symptoms of hypoglycaemia.

NOD mice [4] = test: Prophylactic effect of daily subcutaneous administration on diabetes and survival in NOD mice (Example 2); format: in vivo; details: for protection against development of diabetes compared with human insulin: daily s.c., equimolar doses (0.77 mg/kg), NOD mice; for diabetes incidence versus buffer treated animals at 40 weeks of age: s.c. daily 0.77 mg/kg from 5 to 32 weeks of age, after termination of treatment; for diabetes incidence versus buffer treated animals at 31 weeks of age: s.c. daily 0.77 mg/kg from 5 weeks of age, after 26 weeks of treatment, female NOD mice; for mice died of hypoglycaemia during the treatment period: 0.77 mg/kg
Method: Female NOD (non-obese diabetic) mice, 4 weeks old, were obtained from Bommice (Bomholtgård, Ry, Denmark). At the beginning of the experiment there were a total of 30 animals in each of the three groups mentioned below. […] The treatment was continued until the mice were 32 weeks old, at which age treatment was stopped and the mice observed until they were 40 weeks old. Beginning when the mice were 10 weeks old, the urine was tested weekly for the presence of glucose using glucosuria test tape (Tes-Tape, Lilly, Indianapolis, Ind.). If an animal tested positive in the glucose urine test, a blood sample was taken and blood glucose measured using a glucose analyzer. If the blood glucose was 15 mmol/l or higher, the animal was classified as diabetic and then sacrificed.

C57/BL mice = test: Effect of oral administration on blood glucose level in mice (Example 4); format: in vivo, mouse; details: oral gavage 1 mg, 2 times a week, after 4 weeks of treatment; non-fasted; 15 minutes
Method: After 4 weeks of treatment, the effect on the blood glucose level in non-fasted animals was analyzed. An initial blood sample was taken in order to determine the control blood glucose level. 15-30 minutes later the animals were fed by gavage and the blood glucose level was determined after further 15, 60 and 180 minutes. […] Insulin is a well known growth factor and has a direct mitogenic effect. The consequence of having a high concentration of intact insulin in the gut lumen directly exposing gut epithelium to its effect is not known but could potentially be serious.

Row | Substance | Activity relative to human insulin (= 1.00) [1] | further results
1 | Abu^A2,Abu^A3 human insulin | 0.0041 | 
2 | Ala^A2 human insulin | 0.006 | 
3 | Asn^B12 human insulin | 0.002 | 
4 | Asp^B25 human insulin | 0.001 | frequency of diabetes compared to buffer treated animals (NOD mice [2]): reduced the frequency of diabetes to the same, or higher degree as insulin did; treated animals died (NOD mice [2]; s.c. daily 0.77 mg/kg, 20 animals per group): none; cases of diabetes after termination of the treatment (NOD mice [2]): no cases of diabetes occurred; mice died or displayed hypoglycaemia (NOD mice [3]; s.c. daily 17.3, 5.8 or 0.6 mg/kg, 26 days observation period): None; effect on blood glucose level (NOD mice [3]; s.c. daily 17.3, 5.8 or 0.6 mg/kg): do not affect the blood glucose levels; hormonally active (relative to human insulin) [1]: less than 0.1%; cases of diabetes after termination of treatment (NOD mice [4]; 0.77 mg/kg s.c. daily until 32 weeks, observed until 40 weeks): 1 case; protection against development of diabetes compared with human insulin (NOD mice [4]; listed as X38, 0.77 mg/kg): prevented the development of diabetes to the same, or higher degree as insulin did; protection against development of diabetes compared with human insulin (NOD mice [4]; listed as human insulin with a single amino acid substitution in position B25, 0.77 mg/kg): protects as well against diabetes as equimolar doses of human insulin does; diabetes incidence versus buffer treated animals at 40 weeks of age (NOD mice [4]): still highly significantly lower; diabetes incidence versus buffer treated animals at 31 weeks of age (NOD mice [4]): highly significantly (p<0.01) lower; treated animals died (NOD mice [4]; s.c. daily 0.77 mg/kg, 30 animals per group, not statistically different from buffer group): one
5 | D-Ala^B12 human insulin | 0.007 | 
6 | D-Cys^A6 human insulin | 0.0023 | 
7 | D-Cys^A6,D-Cys^A11 human insulin | 0.00027 | 
8 | D-Cys^A7 human insulin | 0.002 | 
9 | D-Cys^A11 human insulin | 0.007 | 
10 | D-allo Ile^A2 human insulin | 0.002 | 
11 | Glu^B12 human insulin | 0.0004 | 
12 | Gly^A2 human insulin | 0.01 | 
13 | Gly^A2,Gly^A3 human insulin | 0.00014 | 
14 | Gly^B6 human insulin | 0.0005 | 
15 | Leu^A3 human insulin | 0.0018 | 
16 | Leu^A19 human insulin | 0.001 | 
17 | Nle^A2 human insulin | 0.01 | 

Row | Substance | Activity relative to human insulin (= 1.00) [1] | further results
18 | Nle^A3 human insulin | 0.0038 | 
19 | Nva^A3 human insulin | 0.014 | 
20 | Phe^B12 human insulin | 0.002 | 
21 | Pro^A2 human insulin | 0.01 | 
22 | Ser^A6,Ser^A11,des(A8-A10) human insulin | 0.0001 | 
23 | Thr^A2 human insulin | 0.001 | 
24 | Val^A2,Ile^A3 human insulin | 0.021 | 
25 | des (A1-A2) human insulin | 0.0014 | 
26 | des (A1-A3) human insulin | 0.0011 | 
27 | des (B1-B5) human insulin | 0.05 | 
28 | des (B1-B6) human insulin | 0.0004 | 
29 | des (B23-B30) human insulin | 0.001 | 
30 | des (B24-B30) human insulin | 0.002 | 
31 | des (B25-B30) human insulin | 0.06 | 
32 | desA1 human insulin | 0.006 | 
33 | desA21 human insulin | 0.04 | 
34 | human insulin [reference compound] |  | blood glucose level immediately after feeding (C57/BL mice): profound immediate reduction in the blood glucose level; frequency of diabetes compared to buffer treated animals (NOD mice [2]): reduced the frequency of diabetes; cases of diabetes after termination of the treatment (NOD mice [2]): no cases of diabetes occurred; effect on blood glucose level (NOD mice [3]; s.c. daily 0.6 mg/kg): marked hypoglycaemic effect; time of death from hypoglycaemia (NOD mice [3]; s.c. daily 3.8 mg/kg, days of treatment): 3 to 5 days; animals died of hypoglycaemia (NOD mice [3]; s.c. daily 3.8 mg/kg, group of 5 NOD mice): 4 of the 5; diabetes incidence versus buffer treated animals at 40 weeks of age (NOD mice [4]): still significantly (p<0.05) lower; diabetes incidence versus buffer treated animals at 31 weeks of age (NOD mice [4]): significantly reduced the incidence of diabetes; mice died of hypoglycaemia during the treatment period (NOD mice [4]; s.c. daily 0.77 mg/kg, 30 animals per group): approx. 50%; mice died of hypoglycaemia during the treatment period (NOD mice [4]; s.c. daily 0.77 mg/kg, 30 animals per group, listed as insulin): 50%
